The source made the active and inactive calls.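 How the source made its calls: active means growth-inhibition EC50 no more than tenfold above the top tested dose; inconclusive means flat fit between 30% and 70% inhibition, or unreliable fit; inactive means EC50 more than tenfold above the top tested dose.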

Experimental findings from PubChem BioAssay AID1959 (Broad Institute, 2009) are described below.

This assay concerns E. coli NEB5alpha growth, BacTiter-Glo luminescence, 4 h. As to the kind of experiment: Escherichia coli growth inhibition, dose response, counter-screen for MEX-5/POS-1 RNA-binding inhibitor project, luminescence, NEB5alpha (AID 1959).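 Further: pUC19-transformed ampicillin-resistant cells grown in LB with ampicillin.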 Background: The purpose of a counterscreen is to sort out artefacts and off-target activity.
Usually EC50 stands for the concentration needed to bring the measured effect to its halfway point. In the case of `C/C(=N\NC(=O)c1nnn(-c2nonc2N)c1-c1cccs1)c1cccc(O)c1`, the EC50 is > 11 µM (inactive).
Take `Cc1nn2c(N3CCOCC3)c3c(nc2c1-c1ccccc1)CCCC3`: the EC50 was > 11 µM (inactive).
Take `N#CC1=C(N)OC2=C(C(=O)CCC2)C1c1cc2c(cc1Br)OCO2` (centres undefined): the EC50 was > 11 µM (inactive).
Consider `COC(=O)CCCC1=CC2=CC(=O)C(C)(OC(=O)c3cnc4ccccc4n3)C(=O)C2=CO1` (centres undefined), for which the EC50 was > 11 µM (inactive).
`O=C(CNC(=O)/C=C/c1ccco1)N=Nc1c(O)[nH]c2ccccc12`: the EC50 was > 11 µM (inactive).
With `CN1CCc2cc3c(c4c2[C@H]1[C@H](O)c1ccccc1-4)OCO3`, the EC50 was > 11 µM (inactive).
In the case of `Cc1cc(C=C2C(=O)N(C)C(=S)N(C)C2=O)c(C)n1C1CCCC1` it was > 11 µM (inactive).
Take `C=CCN1C(=O)/C(=C2/Sc3ccc(OC)cc3N2CC)SC1=S`: the EC50 is > 11 µM (inactive).
Turning to `CC1(C)Cc2c(cnn2-c2cccc(F)c2)C(NC(=O)CSc2ccccn2)C1` (centres undefined), the EC50 was > 11 µM (inactive).
Next, `N=c1c(C(=O)NCCN2CCOCC2)cc2c(=O)n3ccccc3nc2n1CCc1ccccc1`: > 11 µM (inactive); `Cc1ccc(/C=C2\Oc3c(ccc(O)c3CN3CCN(C)CC3)C2=O)cc1`: > 11 µM (inactive).
On to `Cc1cc2oc(=O)c(CC(=O)NCCCO)c(C)c2c2occ(C(C)(C)C)c12`, for which the EC50 is > 11 µM (inactive).
With `Cn1cc(C2=C(c3ccc(Cl)cc3Cl)C(=O)NC2=O)c2ccccc21`, the EC50 is > 11 µM (inactive).
Turning to `COc1cc2ccccc2cc1C(=O)NC(=S)Nc1cc(C(=O)O)ccc1C`, the EC50 was > 11 µM (inactive).
As to `C=CCSc1nnc(N2C(=O)C(O)=C(C(=O)c3ccco3)C2c2ccccc2F)s1` (centres undefined), the EC50 was > 11 µM (inactive).
For `C=CC1=C(C(=O)O)N2C(=O)[C@@H](NC(=O)/C(=N\O)c3csc(N)n3)[C@H]2SC1` (stereo in doubt), the EC50 is 0.521 µM.
With `COc1ccc(N=Cc2c(O)ccc3ccccc23)cc1`, the EC50 is > 11 µM (inactive).
For `CCCC(C)NC(=O)c1ccc(C2SCC(=O)N2Cc2ccco2)cc1` (centres undefined), the EC50 was > 11 µM (inactive).
Consider `CC/C(=C\C=C\[C@@H]1C=C[C@@H]2CCC[C@H]2[C@@H]1C(=O)c1ccc[nH]1)[C@@H]1O[C@@H]([C@@H](C)C(=O)O)CC[C@@H]1C`, for which the EC50 is > 11 µM (inactive).
In the case of `Cc1ccc(S(=O)(=O)/N=C2\C=C(Nc3cccc(C(=O)O)c3)C(=O)c3ccccc32)c(C)c1` it was > 11 µM (inactive).
For the compound `Nc1nnc2c(n1)CCCC2`, the EC50 was > 11 µM (inactive).
Next, `Cc1[nH][nH]c(=O)c1C(c1ccc(-c2ccccc2C(=O)O)o1)c1c(C)[nH][nH]c1=O`: > 11 µM (inactive); `CC(=O)NCCNc1ccc([N+](=O)[O-])cc1C#N`: > 11 µM (inactive).
In the case of `Cc1ccc(C(=O)N/C(=C\c2ccc(-c3ccccc3[N+](=O)[O-])o2)C(=O)NCCCN(C)C)cc1`, the EC50 was > 11 µM (inactive).
Take `COc1cc(C2C(C#N)=C(N)OC3=C2C(=O)CC(C)(C)C3)c([N+](=O)[O-])cc1OC` (centres undefined): the EC50 was > 11 µM (inactive).
Turning to `COc1cccc(OCCCn2cc(/C=C3/C(=N)N4C=C(C)SC4=NC3=O)c3ccccc32)c1`, the EC50 was > 11 µM (inactive).
With `COc1cc(C(c2c(C(=O)O)[nH]c3ccccc23)c2c(C(=O)O)[nH]c3ccccc23)ccc1OCc1ccccc1`, the EC50 is > 11 µM (inactive).
Turning to `CC1(OC(=O)c2ccc(Cl)nc2)C(=O)C=C2C=C(C3CC3)OC=C2C1=O` (centres undefined), the EC50 is > 11 µM (inactive).
For the compound `COc1cc(/C=N/Nc2nc(=O)[nH]nc2C)ccc1O`, the EC50 was > 11 µM (inactive).
Regarding `O=c1[nH]n(-c2ncnc3c2cnn3-c2ccccc2)c(=O)c2ccccc12`, the EC50 is > 11 µM (inactive).
Next, `O=C(O)CSc1cc(NS(=O)(=O)c2ccc(Br)cc2)c2ccccc2c1O`: > 11 µM (inactive); `CCOC(=O)c1cc(=O)n2nc(-c3ccccc3F)nc2s1`: > 11 µM (inactive).
As to `Cc1c2ccccc2nc2c(F)c(NC(C)C)c(F)c(F)c12`, the EC50 was > 11 µM (inactive).
`Cc1nc(S/C(=C/c2ccc(-c3ccc(Cl)cc3)o2)C(=O)O)n[nH]1`: the EC50 is > 11 µM (inactive).
Next, `CCN(CC)CCN1C(=O)c2cccc3cc(N)cc(c23)C1=O`: > 11 µM (inactive).
For `CN(C)c1ccc(/C=C/c2nc3ccccc3s2)cc1`, the EC50 is > 11 µM (inactive).
Next, `Nc1cc(S(=O)(=O)O)cc([N+](=O)[O-])c1O`: > 11 µM (inactive).
For the compound `CCOC(=O)C1Nc2ccc(C(=O)O)cc2C2C=CCC12` (centres undefined), the EC50 was > 11 µM (inactive).
In the case of `O=C1c2ccccc2C(=O)c2c1cccc2N(CCO)CCO` it was > 11 µM (inactive); in that of `CCOC(=O)N1CCN(C2=Nc3cccc4cccc2c34)CC1`, > 11 µM (inactive).
`Nc1ccc2c(c1)C/C(=C/c1ccco1)C2=O`: the EC50 was > 11 µM (inactive).
On to `O=C1/C(=C/c2ccc(O)c(O)c2)SC(=S)N1Nc1ccccc1`, for which the EC50 is > 11 µM (inactive).
Consider `Cc1nc(S/C(C(=O)O)=C2/C(=O)Nc3ccccc32)n[nH]1`, for which the EC50 was > 11 µM (inactive).
Take `O=C(NCCN1CCOCC1)c1cccn2c(=O)c3c4c(sc3nc12)CCCC4`: the EC50 was > 11 µM (inactive).
Turning to `COc1ccc(C2C(C#N)=C(N)OC3=C2C(=O)CC(C)(C)C3)c(OC)c1OC` (centres undefined), the EC50 is > 11 µM (inactive).
Turning to `O=C(O)c1ccccc1-n1c2ccccc2c2ccccc21`, the EC50 was > 11 µM (inactive).
Next, `O=C(O)C1Nc2c(C(=O)N3CCOCC3)cccc2C2C=CCC12` (centres undefined): > 11 µM (inactive).
On to `S=C1NC2(CCS1)Oc1ccccc1C1CC(c3ccccc3)=NN12` (centres undefined), for which the EC50 is > 11 µM (inactive).
In the case of `CN1C(=O)/C(=C/c2ccc3c(c2)OCO3)N=C1c1ccccc1` it was > 11 µM (inactive); in that of `Cc1ccc(C2c3sc(=O)[nH]c3SC3C(=O)NC(=O)C32)cc1` (centres undefined), > 11 µM (inactive).
As to `Cc1cc(O)c(CN(C)C)c2c1C(=O)/C(=C/c1ccco1)O2`, the EC50 was > 11 µM (inactive).
Next, `Cc1ccc(Cl)c2c(N=Nc3ccccc3)c(O)[nH]c12`: > 11 µM (inactive); `CC1(OC(=O)c2ccco2)C(=O)C=C2C=C(c3ccc(C#N)cc3)OC=C2C1=O` (centres undefined): > 11 µM (inactive).
Regarding `CCOC(=O)/C(C#N)=C/c1cc2ccccc2nc1N1CCCCC1`, the EC50 was > 11 µM (inactive).
For `Cc1nnc(N2C(=O)C(O)=C(C(=O)c3ccco3)C2c2ccc(F)cc2)s1` (centres undefined), the EC50 is > 11 µM (inactive).
With `Nc1c(C(=O)N/N=C/c2cccnc2)oc2nc(-c3ccccc3)cc(-c3ccco3)c12`, the EC50 is > 11 µM (inactive).
For the compound `O=C(CC1Nc2ccccc2NC1=O)c1ccccc1` (centres undefined), the EC50 is > 11 µM (inactive).
As for `CCN(CC)c1ccc(N=Cc2c(O)n(-c3cc(OC)ccc3OC)c(=O)[nH]c2=O)cc1`, the EC50 was > 11 µM (inactive).
Take `O=C(N/N=C/c1cc(Cl)cc([N+](=O)[O-])c1O)c1ccccc1NS(=O)(=O)c1cccs1`: the EC50 is > 11 µM (inactive).
Take `CCCCC1=CC2=CC(=O)C(C)(OC(=O)c3ccco3)C(=O)C2=CO1` (centres undefined): the EC50 is > 11 µM (inactive).
`O=c1[nH]c(/C=C\c2ccc(O)c(O)c2)nc(O)c1[N+](=O)[O-]`: the EC50 is > 11 µM (inactive).
Turning to `Cn1nc(C(F)(F)F)cc1-c1ccc(/C=C(\C#N)C(=O)c2ccccc2)s1`, the EC50 is > 11 µM (inactive).
As for `CCn1cc(C=C2C(=O)NC(=O)NC2=O)c2ccccc21`, the EC50 is > 11 µM (inactive).
On to `O=C(NNS(=O)(=O)c1ccc([N+](=O)[O-])cc1)C(=O)Nc1cccc(C(=O)O)c1`, for which the EC50 is > 11 µM (inactive).
In the case of `CCC(C)/C=C(C)/C=C/C1=CC2=C(Cl)C(=O)C(C)(OC(C)=O)C(=O)C2=CO1` (centres undefined), the EC50 was > 11 µM (inactive).
Consider `Cc1n[nH]c(=S)c2nn(-c3cccc(Cl)c3)c(C)c12`, for which the EC50 was > 11 µM (inactive).
As to `COC(=O)c1ccc(-n2c(C)cc(/C=N/n3cnnc3)c2C)cc1`, the EC50 is > 11 µM (inactive).
On to `O=C1CSC(=S)N1N1C(=O)c2cccc([N+](=O)[O-])c2C1=O`, for which the EC50 is > 11 µM (inactive).
On to `O=C(c1coc(=O)c(Br)c1)N1CCCc2ccccc21`, for which the EC50 was > 11 µM (inactive).
In the case of `CC1=CC(C)(C)N2C(=O)C3(C(C#N)=C(N)OC4=C3C(=O)CC(C)(C)C4)c3c(C)c(C)cc1c32` (centres undefined) it was > 11 µM (inactive); in that of `COc1ccc(/C=C2\CCCc3c2nc2ccccc2c3C(=O)O)cc1OC`, > 11 µM (inactive).
Regarding `C(=N\Nc1nc2ccccc2[nH]1)/c1ccccn1`, the EC50 was > 11 µM (inactive).
Next, `S=c1[nH]c2ccccc2n2c(=S)[nH]nc12`: > 11 µM (inactive); `CCCn1c(O)c(CN2CCCCC2)c(C)c(C#N)c1=O`: > 11 µM (inactive); `CCOc1ccccc1N1CCN(C(=O)CNC(=O)c2ccccc2F)CC1`: > 11 µM (inactive).
`O=C(O)c1ccc2c(c1)C1C=CCC1C(c1ccncc1)N2` (centres undefined): the EC50 is > 11 µM (inactive).
Turning to `C=CCOc1cccc(C2C(C(=O)c3ccco3)=C(O)C(=O)N2Cc2ccco2)c1` (centres undefined), the EC50 is > 11 µM (inactive).
For `CC1=CC(C#N)(C#N)C(C#N)(C#N)C(c2ccccc2)N1` (centres undefined), the EC50 was > 11 µM (inactive).
For the compound `COc1ccc(/C=C/c2ccc3c(Br)ccc(O)c3n2)cc1`, the EC50 was > 11 µM (inactive).
Take `O=C(Nc1cc(=O)[nH]c2ncnn12)c1ccc(Cl)cc1Cl`: the EC50 was > 11 µM (inactive).
For `O=C(O)c1cccc(-n2cccc2/C=C\[N+](=O)[O-])c1`, the EC50 is > 11 µM (inactive).
As for `CC[C@H](C)/C=C(C)/C=C/C1=CC2=C(Cl)C(=O)[C@@](C)(OC(C)=O)C(=O)C2=CO1`, the EC50 is > 11 µM (inactive).
Consider `CC(=O)c1ccc(-c2ccc(/C=C(/Sc3n[nH]c(C)n3)C(=O)O)o2)cc1`, for which the EC50 is > 11 µM (inactive).
As for `CC1=NN(C(N)=S)C(=O)C1N=Nc1cccc(C(=O)O)c1` (centres undefined), the EC50 was > 11 µM (inactive).
